From patent US20220362340A1, “COMPOSITIONS AND USES THEREOF FOR TREATING IRRADIATION-INDUCED INTESTINAL DAMAGE” (UNIVERSITY OF PITTSBURGH-OF THE COMMONWEALTH SYSTEM OF …, priority 2019, published 2022)
“Also recorded” adds a separate entry of the source.

B1: G-CSF: Granulocyte colony-stimulating factor polypeptide, irradiation mitigator (protein, listed as Homo sapiens)
chain: MAGPATQSPMKLMALQLLLWHSALWTVQEATPLGPASSLPQSFLLKCLEQVRKIQGDGAALQEKLVSECATYKLCHPEELVLLGHSLGIPWAPLSSCPSQALQLAGCLSQLHSGLFLYQGLLQALEGISPELGPTLDTLQLDVADFATTIWQQMEELGMAPALQPTQGAMPAFASAFQRRAGGVLVASHLQSFLEVSYRVLRHLAQP

Key:
[1] = system: C57BL/6NTac mice irradiated to 9.25 Gy total body irradiation; experiment: Survival after 9.25 Gy total body irradiation (TBI); assay type: in vivo, mouse; conditions: 9.25 Gy TBI; for 30 days survival: JP4-039 20 mg/kg I.M., G-CSF 4 mg/kg I.P. at 24 h, n=10, irradiated controls 20%; for survival at 30 days after TBI: treatment 24 hrs later, FIG. 7, irradiated control 10%
From the text: Mice and Animal Care. Female C57BL/6NTac (Taconic Biosciences, Wayne, Pa.) and C57BL/6 lgr5+ green fluorescent protein tagged (5-6) lgr5+ mice were housed 5 per cage and fed standard laboratory chow and deionized drinking water according to University of Pittsburgh IACUC regulations.
Irradiation. Total body irradiation was delivered with a cesium-137 Gamma Cell irradiator with filters removed at a dose rate of […], beam flatness, homogeneity, and analysis of spectrum of gamma ray precise dosimetry were carried out. Mice were irradiated in a plexiglass pie plate that contains 12 sections. Five mice were placed in each pie plate. The mice were not placed in adjacent sections, but had one or two empty sections between mice so that the mice would not shield the other mice in the pie plate. Thermoluminescent (TLD) readings according to published methods. [Steinman J, et al., Improved total- body irradiation survival by delivery of two radiation mitigators that target distinct cell death pathways. Radiat Res 189(1): 68-83, 2018.]
Dose Response Curve of Number of Gavaged Lactobacillus-reuteri, or E. coli Producing IL-22 or IFN-β. Mice were irradiated to 9.25 Gy TBI, which took 13-14 minutes, and were then 24 h later gavaged with 100 μL saline solution containing Lactobacillus reuteri-IL-22, or E. coli-IL-22, or at 48 hrs post irradiation E. coli-IFN-β (based on the known time of requirement for IFN-β by lgr5+ cells at this time). All groups of mice received 100 μL saline, which contained varying numbers of bacteria ranging from 10^9, 10^8, 10^7, to 10^6 bacteria (n=10 animals per group).
Administration of Small Molecule Radiation Mitigator, IL-22 Protein, L. reuteri Lacking IL-22, or Gavaged Fecal Microbiome. As a control for probiotic mitigators, the GS-nitroxide, JP4-039 [Rwigema J -CM, et al., Two strategies for the development of mitochondrial-targeted small molecule radiation damage mitigators. Int J Radiat Oncol Biol Phys 80(3): 860-868, 2011], was prepared and administered according to published methods, I.M. at 20 mg/kg in 50 μL of 30% cyclodextrin aqueous [Epperly M W, et al., Evaluations of different formulations and routes for the delivery of the ionizing radiation mitigation GS-nitroxide (JP4-039). In Vivo 32: 1009-1023, 2018]. Cyclodextrin alone has no radiomitigative effect. […]
10^9 L. reuteri lacking IL-22 was administered in 100 μl/saline. A similar number of bacteria from feces obtained from 30-day survivors of 9.25 Gy TBI was gavaged. Fecal microbiome transplant (FMT) was carried out by delivery by gavage in 100 μL saline; 10^9 bacteria from the feces of 30-day survivors of 9.25 Gy TBI of C57BL/6 female mice.
C57BL/6NTac mice were irradiated to 9.25 Gy total body irradiation and gavaged with Lactobacillus reuteri-IL-22 or Lactobacillus reuteri harboring the empty vector control. […]
To determine whether successful radiation mitigation correlated with changes in the intestinal microbiome, groups of mice received 9.25 Gy total body irradiation (TBI) and subgroups treated with the small molecule radiation mitigator, JP4-039 (20 mg/kg in 50 microliters of 30% 2-hydroxypropyl-β-cyclodextrin I.M.), G-CSF (4 mg/kg I.P.), or both mitigators at 24 h after TBI. Fecal pellets were analyzed pre-irradiation, and at days 1, 3, 5, 7, 10, 14, 21, and 30 after irradiation. […]

IL-22 = experiment: Intestinal level of IL-22 after TBI; assay type: in vivo, mouse; conditions: 9.25 Gy TBI; treatment at 24 h; FIG. 17A

Molecule	30 days survival [1]	survival at 30 days after TBI [1]	intestinal level of IL-22 after TBI (IL-22)	survival compared to irradiation only mice ([1]; treatment 24 hr after, IL-22 protein 0.1 mg/kg I.M., FIG. 9)
CC(C)C[C@@H](/C=C/CC(=O)NC1CC(C)(C)N([O])C(C)(C)C1)NC(=O)OC(C)(C)C [JP4-039]	50%	70%	restored IL-22 levels	
IL-22 protein: recombinant IL-22 protein injected as control		40%		significantly increased survival; also recorded: significantly improved survival
B1	70%			
